Measurements: patent US8609725B2, “Method of using beta-hydroxy-beta-methylbutyrate for reducing tumor growth rate” (Abbott Laboratories, priority 2004, dated 2013)

Key:
[1] = system: mice bearing the MAC16 tumor; test: Weight loss, food and water intake in mice bearing the MAC16 tumor; assay type: in vivo, NMRI mice; settings: doses of HMB greater than 0.125 g/kg, p.o. by gavage daily
From the text: This study evaluates the effect of HMB, in comparison with EPA or combination, on weight loss induced by the MAC16 tumor and the mechanisms involved. […] Pure strain male NMRI mice (average weight 25 g) were obtained from our own inbred colony and were transplanted with fragments of the MAC16 tumor s.c. into the flank by means of a trochar, selecting from donor animals with established weight loss as described in Bibby, M. C. et al. Characterization of a transplantable adenocarcinoma of the mouse colon producing cachexia in recipient animals. J. Natl. Cancer Inst., 78: 539-546, 1987. Transplanted animals were fed a rat and mouse breeding diet (Special Diet Services, Witham, United Kingdom) and water ad libitum, and weight loss was evident 10-12 days after tumor implantation. Animals just prior to the development of weight loss were randomized to receive daily either EPA (in olive oil), HMB (in PBS) or the combination as described in the figure legends administered p.o. by gavage, while control animals received either olive oil or PBS. EPA (98% as free acid) was purchased from Biomol Research Laboratories Inc., PA, USA. HMB (as the calcium salt) was obtained from Abbott Laboratories, Columbus, Ohio, USA. All groups contained a minimum of 6 mice. Tumor volume, body weight and food and water intake were monitored daily. […]

[2] = system: proteasome; test: Functional proteasome 'chymotrypsin-like' enzyme activity in gastrocnemius muscle of MAC16 mice; assay type: in vivo, NMRI mice; settings: HMB 0.25 g/kg, EPA 0.6 g/kg or combination, 3 days
Protocol: Functional proteasome activity was determined by measuring the ‘chymotrypsin-like’ enzyme activity, the predominant proteolytic activity of the β-subunits of the proteasome according to the method of Orino, E. et al. ATP-dependent reversible association of proteasomes with multiple protein components to form 26S complexes that degrade ubiquitinated proteins in human HL-60 cells. FEBS Lett., 284: 206-210, 1991. Muscles were rinsed with ice-cold PBS, minced and sonicated in 20 mM Tris. HCl, pH 7.5, 2 mM ATP, 5 mM MgCl2 and 1 mM DTT. The sonicate was then centrifuged for 10 min at 18,000 g, at 4° C. and the supernatant was used to determine ‘chymotrypsin-like’ enzyme activity by the release of aminomethyl coumarin (AMC) from the fluorogenic substrate succinyl-LLVY-AMC. Activity was measured in the absence and presence of the specific proteasome inhibitor lactacystin (10 μM). Only lactacystin suppressible activity was considered to be proteasome specific.

[3] = system: 20S proteasome α-subunits; test: Western blotting of 20S proteasome α-subunits in gastrocnemius muscle of MAC16 mice; assay type: in vivo, NMRI mice
[4] = system: MSS1, an ATPase subunit of the 19S proteasome regulatory complex; test: Western blotting of MSS1 in gastrocnemius muscle of MAC16 mice; assay type: in vivo, NMRI mice
[5] = system: p42, ATPase subunit of the 19S regulator; test: Western blotting of p42 in gastrocnemius muscle of MAC16 mice; assay type: in vivo, NMRI mice
[6] = system: ubiquitin-conjugating enzyme, E214k; test: Western blotting of E214k in gastrocnemius muscle of MAC16 mice; assay type: in vivo, NMRI mice; settings: HMB 0.25 g/kg, EPA 0.6 g/kg or combination, 3 days
Protocol: For Western blotting samples of soleus muscle cytosolic protein (2 to 5 μg), obtained from the above assay, were resolved on 10% SDS-PAGE and transferred to 0.45 μm nitrocellulose membrane (HybondTM, Amersham Life Science Products, Bucks, United Kingdom), which had been blocked with 5% Marvel in PBS. The primary antibodies for MSS1 and p42 were used at a dilution of 1:5000, for 20S proteasome α-subunits at 1:1500 and for β-subunits at 1:1000, while the antibody for […] was used at a dilution of 1:500. The secondary antibodies were used at a dilution of 1:2000. Mouse monoclonal antibodies to 20S proteasome subunits a 1, 2, 3, 5, 6 and 7 (clone MCP 231), 20S proteasome subunit β3 (HC10), 19S regulator ATPase subunit […]1; clone MSS1-104) and 19S regulator ATPase subunit Rpt 4 ([…], p42; clone p42-23) were purchased from Affiniti Research Products, Exeter, United Kingdom. Rabbit polyclonal antisera to ubiquitin-conjugating enzyme E2 (anti-UBC2 antibody) was a gift from Dr. Simon Wing, McGill University, Montreal, Quebec, Canada. Peroxidase-conjugated goat anti-rabbit and rabbit anti-mouse secondary antibodies were from Dako Ltd., Cambridge, United Kingdom. Incubation was carried out for 2 h at room temperature, and developed by chemiluminescence (ECL; Amersham).

[7] = target: T1, PKCα (Mus musculus, UniProt P20444); test: PIF-stimulated translocation of PKCα from cytoplasm to plasma membrane in murine myotubes; assay type: cell-based
T1 construct: PIF stimulates translocation of PKCα from the cytoplasm to the plasma membrane; endogenous in cells; host or cells: murine myotubes (C2C12)
Protocol: For Western blot analysis, cytosolic protein (2 to 5 μg) obtained for the above assay were resolved on 10% SDS-PAGE and transferred to 0.45 μm nitrocellulose membrane, which had been blocked with 5% Marvel in PBS, at 4° C. overnight. The primary antibodies were used at a dilution of 1:100 (anti-actin and PKCα); 1:500 (anti-ERK1 and 2); 1:1000 (anti-20S proteasome β-subunit and I-κBα); 1:1500 (anti-20S proteasome α-subunit) or 1:5000 (anti-p42), while the secondary antibodies were used at a dilution of 1:2000. Incubation was carried out for 2 h at room temperature and development was by ECL. Loading was quantitated by actin concentration.
The in vitro study described in Example III above also evaluated the effect of HMB on molecules that are key mediators in the pathway of inflammation. This experiment was conducted as described in Example III.

[8] = system: NF-κB; test: NF-κB nuclear accumulation / binding to DNA (EMSA) in murine myotubes; assay type: cell-based
Protocol: DNA binding proteins were extracted from myotubes by the method of Andrews, N. C. et al. A rapid micropreparation technique for extraction of DNA-binding proteins from limiting numbers of mammalian cells. Nucleic Acids Res., 19: 2499, 1991, which utilizes hypotonic lysis followed by high salt extraction of nuclei. The EMSA (electrophoretic mobility shift assay) binding assay was carried out according to the manufacturer's instructions. The in vitro study described in Example III above also evaluated the effect of HMB on molecules that are key mediators in the pathway of inflammation. This experiment was conducted as described in Example III.

[9] = system: rats and chicks; settings: cited from earlier work
[10] = HMB 0.25 g/kg, EPA 0.6 g/kg or combination, 3 days
[11] = avg., 1996 abstract, normal rats and chicks

## CC(C)(O)CC(=O)O [HMB, beta-hydroxy-beta-methylbutyric acid]
[1]
  weight loss: significant reduction in weight loss
[2]
  functional proteasome activity ('chymotrypsin-like' enzyme activity): attenuated
[3]; [10]
  expression of 20S proteasome α-subunits: attenuated
[3]; summary of Examples I-IV
  reduction of protein expression of 20S α-subunits: at least 50%
[4]; [10]
  expression of MSS1: attenuated
[4]; summary of Examples I-IV
  reduction of protein expression of MSS1: at least 50%
[5]; [10]
  expression of p42: equally effective
[5]; summary of Examples I-IV
  reduction of protein expression of p42: at least 50%
[6]
  expression of E214k: reduced
[7]; 25 μM HMB
  attenuation of PIF-stimulated translocation of PKCα: less effective
[7]; 50 μM
  attenuation of PIF-stimulated translocation of PKCα: effectively attenuated
[8]; 25 μM HMB
  inhibition of binding of NF-κB to DNA: Only partial inhibition
[8]; 50 μM HMB
  nuclear accumulation of NF-κB: prevent nuclear accumulation of NF-κB
[9]; [11]
  change of protein breakdown: −18%
  stimulation of protein synthesis: 6%
[9]; later paper (2000), same model in rats and chicks
  effect on protein synthesis: no significant effect
